# Reference: patent publication US11260056B2, “Diaminopyrimidine P2X3 and P2X2/3 receptor modulators for use in the treatment of cough” (Afferent Pharmaceuticals, Inc., priority 2015, dated 2022)
# Tests used:
# Format in all cases: in vivo, human
# [1] = tested on: treatment-resistant chronic cough patients; assay: Double-blind randomized placebo-controlled crossover trial in idiopathic/treatment-resistant chronic cough; details: 600 mg bd
# Experimental: Thus, the inventors explored the role of P2X3 receptors in the sensitization of vagal pathways mediating the cough reflex leading to chronic cough (CC). A study was performed to investigate the efficacy of oral administration of Compound 16 in reducing daytime cough in idiopathic/treatment-resistant chronic cough.
# In this study, a double-blind randomized placebo-controlled crossover trial, 24 subjects (19 women, mean age 55 yrs) were randomized into a double blind, placebo-controlled, 2-period, crossover study, of Compound 16, 600 mg bd. Cough was assessed using an ambulatory sound monitoring system at baseline and after 2 weeks of treatment; primary endpoint, daytime objective cough frequency (coughs/hr) (VitaloJAK™); secondary endpoints, cough severity and urge to cough (UTC) visual analogue scales (VAS), global ratings of change and cough quality of life questionnaire (CQLQ).
# [2] = Phase 1/Phase 2 clinical studies: safety, tolerability and pharmacokinetics after oral administration
# Experimental: Compound 16 has progressed to completion of 6 Phase 1 studies and 5 Phase 2 studies, with several studies in progress or soon to commence, and over 400 subjects dosed at least once with Compound 16. […] Studies in normal healthy volunteers have explored safety, tolerability and pharmacokinetics of Compound 16 following oral administration of doses from 10 mg to 1800 mg for up to 3 weeks. […] Plasma half-life falls in the range of 7-9 h, with steady state for BID dosing achieved after 3 doses.
# chronic cough patients = assay: Phase 2b dose-escalation crossover study in chronic cough patients
# Experimental: Cough frequency was measured objectively utilizing a cough recording device, with periodic measurements following Compound 16 treatment compared to a baseline recording.
# The 29-patient randomized, double-blind, placebo controlled, Phase 2b crossover study was conducted at 10 clinical sites in the U.S. Patients were randomized to either Compound 16 or placebo arms. Those in the treatment group received Compound 16 50 mg, followed by a titration up to 100 mg, 150 mg and 200 mg, with each dose given twice daily for four days. Treatment period one was followed by a 3-5 day washout period. Patients were then crossed over to the alternate arm of the study and treated with either Compound 16 or placebo for 16 more days.
structure (smiles),measurement,setting,value
"COc1cc(C(C)C)c(Oc2cnc(N)nc2N)cc1S(N)(=O)=O [Compound 16, 5-(2,4-Diamino-pyrimidin-5-yloxy)-4-isopropyl-2-methoxy-benzenesulfonamide]","CQLQ (cough quality of life questionnaire), mean difference vs. placebo","[1]; 2 weeks, (−2 to −17), p=0.018",−9
same,"UTC (urge to cough) VAS, mean difference vs. placebo","[1]; 2 weeks, (−2 to −41), p=0.035",−21 mm
same,"cough severity VAS, mean difference vs. placebo","[1]; 2 weeks, (−10 to −42), p=0.003",−26 mm
same,"daytime coughs/hr, mean difference vs. placebo","[1]; after 2 weeks of treatment, 95% CI −50 to −88, p<0.001",−75%
same,patients who rated an improved cough,[1]; compared to 2/22 treated with placebo,13/24
same,reduction in objective daytime cough counts,[1]; patients with refractory chronic cough,75%
same,steady state for BID dosing achieved after,"[2]; human, oral BID dosing",3 doses
same,oral bioavailability,"[2]; human, based on % dose recovered in urine",appears to be high
same,Clinical safety,"[2]; over 400 subjects dosed at least once, 10 mg to 1800 mg",excellent
same,adverse events (AEs),"[2]; patients and healthy volunteers, dose-dependent, notable at higher dose levels",limited to oropharyngeal findings (hypogeusia)
same,half-life,"[2]; plasma, human, oral, immediate release formulation",7 to 9 h
same,incidence of decreased taste acuity,chronic cough patients; 50 mg dose versus 600 mg twice daily in the first study,much less at the 50 mg dose
same,tolerability,chronic cough patients; 50-200 mg twice daily,generally well tolerated
same,patients who discontinued treatment due to the taste effect,"chronic cough patients; at any dose, 29 patients",Only one patient discontinued treatment
